Experimental data taken from ChEMBL document CHEMBL1122784, “Antitumor imidazotetrazines. 1. Synthesis and chemistry of 8-carbamoyl-3-(2-chloroethyl)imidazo[5,1-d]-1,2,3,5-tetrazin-4(3 H)-one , a novel broad-spectrum antitumor agent” (J Med Chem, 1984).

Tests used:
Assay type in all cases: ADME
[1] = Half-life period in 95% ethanol in dark at 28 degrees celsius.
[2] = Half-life period in 95% ethanol in diffuse laboratory light at 28 degrees celsius.
[3] = Half-life period in phosphate buffer at pH 7.4 in the dark at 28 degrees celsius.
[4] = Half-life period in 95% ethanol in diffuse laboratory light at 28 degrees celsius

half-life [1]	half-life [2]	half-life [3]	half-life [4]	Structure (SMILES)
40 min	7.5 min	–	–	Cc1ccc(-n2nnc3c(C(N)=O)ncn3c2=O)cc1
78 min	8 min	–	–	CCOc1ccc(-n2nnc3c(C(N)=O)ncn3c2=O)cc1
155 min	155 min	–	–	CCCn1nnc2c(C(N)=O)ncn2c1=O
23 min	9 min	–	–	NC(=O)c1ncn2c(=O)n(-c3ccccc3)nnc12
69 min	8.5 min	155 min	–	COc1ccc(-n2nnc3c(C(N)=O)ncn3c2=O)cc1
6.3 min	8.2 min	2.9 min	–	NC(=O)c1ncn2c(=O)n(-c3ccc(Cl)cc3)nnc12
2.6 min	–	–	–	N#Cc1cccc(-n2nnc3c(C(N)=O)ncn3c2=O)c1
495 min	–	–	495 min	Cn1nnc2c(C(N)=O)ncn2c1=O [TEMOZOLOMIDE]
< 1 min	–	–	–	NC(=O)c1ncn2c(=O)n(-c3ccc([N+](=O)[O-])cc3)nnc12
4.6 min	–	–	–	NC(=O)c1ncn2c(=O)n(-c3cccc4ccccc34)nnc12
